Data published in patent publication US6355799B1, “Substituted benzene compounds, process for their preparation, and herbicidal and defoliant compositions containing them” (ISK Americas Incorporated, priority 1997, dated 2002).

Key:
Assay type in all cases: in vivo
[1] = system: velvetleaf (Abutilon theophrasti, ABUTH); assay: Post-emerge test, greenhouse herbicide activity screening; conditions: post-emerge; for Post-emerge Herbicidal Activity ABUTH: phytotoxicity rating 0-100 at 14 days after application; for Post-emerge Herbicidal Activity ABUTH (phytotoxicity rating): 14 days after application, rating scale 0-100
Procedure, shortened: (§1)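 Visual ratings on a 0-100 scale (0 no damage, 100 all plants dead) were taken at 14 days after treatment. Rates of 15-1000 g ai/ha in acetone, 187 l/ha, were sprayed onto soil one day after planting (pre-emerge) or onto 2-3 leaf plants with 0.25% v/v surfactant (post-emerge).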

[2] = system: lambsquarters (Chenopodium album, CHEAL); assay: as above; conditions: post-emerge; for Post-emerge Herbicidal Activity CHEAL: phytotoxicity rating 0-100 at 14 days after application; for Post-emerge Herbicidal Activity CHEAL (phytotoxicity rating): 14 days after application, rating scale 0-100
Procedure, shortened: as §1

[3] = system: large crabgrass (Digitaria sanguinalis, DIGSA); assay: as above; conditions: post-emerge; for Post-emerge Herbicidal Activity DIGSA: phytotoxicity rating 0-100 at 14 days after application; for Post-emerge Herbicidal Activity DIGSA (phytotoxicity rating): 14 days after application, rating scale 0-100
Procedure, shortened: as §1

[4] = system: green foxtail (Setaria viridis, SETVI); assay: as above; conditions: post-emerge; for Post-emerge Herbicidal Activity SETVI: phytotoxicity rating 0-100 at 14 days after application; for Post-emerge Herbicidal Activity SETVI (phytotoxicity rating): 14 days after application, rating scale 0-100
Procedure, shortened: as §1

[5] = system: johnsongrass (Sorghum halepense, SORHA); assay: as above; conditions: post-emerge; for Post-emerge Herbicidal Activity SORHA: phytotoxicity rating 0-100 at 14 days after application; for Post-emerge Herbicidal Activity SORHA (phytotoxicity rating): 14 days after application, rating scale 0-100
Procedure, shortened: as §1

[6] = system: redroot pigweed (Amaranthus retroflexus, AMARE); assay: as above; conditions: post-emerge; for Post-emerge Herbicidal Activity AMARE: phytotoxicity rating 0-100 at 14 days after application; for Post-emerge Herbicidal Activity AMARE (phytotoxicity rating): 14 days after application
Procedure, shortened: as §1

[7] = system: barnyardgrass (Echinochloa crus-galli, ECHCG); assay: as above; conditions: post-emerge; for Post-emerge Herbicidal Activity ECHCG: phytotoxicity rating 0-100 at 14 days after application; for Post-emerge Herbicidal Activity ECHCG (phytotoxicity rating): 14 days after application, rating scale 0-100
Procedure, shortened: as §1

[8] = system: ivyleaf morningglory (Ipomoea hederacea, IPOHE); assay: as above; conditions: post-emerge; for Post-emerge Herbicidal Activity IPOHE: phytotoxicity rating 0-100 at 14 days after application; for Post-emerge Herbicidal Activity IPOHE (phytotoxicity rating): 14 days after application, rating scale 0-100
Procedure, shortened: as §1

[9] = system: sicklepod (Cassia obtusifolia, CASOB); assay: as above; conditions: post-emerge; for Post-emerge Herbicidal Activity CASOB: phytotoxicity rating 0-100 at 14 days after application; for Post-emerge Herbicidal Activity CASOB (phytotoxicity rating): 14 days after application, rating scale 0-100
Procedure, shortened: as §1

[10] = system: field corn (Zea mays L., var. Dekalb 535, CORN); assay: Post-emerge test, crop safety; conditions: post-emerge; for Post-emerge Herbicidal Activity CORN: crop damage rating 0-100 at 14 days after application; for Post-emerge Herbicidal Activity CORN (crop damage rating): 14 days after application, rating scale 0-100
Procedure, shortened: (§2)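 Herbicidal damage is scored 0 (none) to 100 (complete plant death) two weeks after a simulated field spray. Rates span 15–1000 g ai/ha, delivered in acetone at 187 l/ha. For post-emergence treatments, plants have 2–3 leaves and the spray carries 0.25% v/v non-ionic surfactant.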

[11] = system: upland rice (Oryza sp., var. Tebonnet, RICE); assay: Post-emerge test, crop safety; conditions: post-emerge; for Post-emerge Herbicidal Activity RICE: crop damage rating 0-100 at 14 days after application; for Post-emerge Herbicidal Activity RICE (crop damage rating): 14 days after application, rating scale 0-100
Procedure, shortened: as §2

COc1c(Cl)cc(F)c(-n2c(=O)n3n(c2=O)CCCC3)c1NC(=O)c1ccc2ccccc2c1 [9-15]
Post-emerge Herbicidal Activity ABUTH ([1]; 63 g ai/ha): 100 | Post-emerge Herbicidal Activity ABUTH ([1]; 250 g ai/ha): 100 | Post-emerge Herbicidal Activity CHEAL ([2]; 63 g ai/ha): 100 | Post-emerge Herbicidal Activity CHEAL ([2]; 250 g ai/ha): 100 | Post-emerge Herbicidal Activity DIGSA ([3]; 63 g ai/ha): 0 | Post-emerge Herbicidal Activity DIGSA ([3]; 250 g ai/ha): 20 | Post-emerge Herbicidal Activity SETVI ([4]; 63 g ai/ha): 10 | Post-emerge Herbicidal Activity SETVI ([4]; 250 g ai/ha): 35 | Post-emerge Herbicidal Activity SORHA ([5]; 63 g ai/ha): 0 | Post-emerge Herbicidal Activity SORHA ([5]; 250 g ai/ha): 10 | Post-emerge Herbicidal Activity AMARE ([6]; 63 g ai/ha): 100 | Post-emerge Herbicidal Activity AMARE ([6]; 250 g ai/ha): 100 | Post-emerge Herbicidal Activity ECHCG ([7]; 63 g ai/ha): 0 | Post-emerge Herbicidal Activity ECHCG ([7]; 250 g ai/ha): 10 | Post-emerge Herbicidal Activity IPOHE ([8]; 63 g ai/ha): 100 | Post-emerge Herbicidal Activity IPOHE ([8]; 250 g ai/ha): 100 | Post-emerge Herbicidal Activity CASOB ([9]; 63 g ai/ha): 100 | Post-emerge Herbicidal Activity CASOB ([9]; 250 g ai/ha): 100 | Post-emerge Herbicidal Activity CORN ([10]; 63 g ai/ha): 5 | Post-emerge Herbicidal Activity CORN ([10]; 250 g ai/ha): 10 | Post-emerge Herbicidal Activity RICE ([11]; 63 g ai/ha): 40 | Post-emerge Herbicidal Activity RICE ([11]; 250 g ai/ha): 70

Cn1c(C(F)(F)F)cc(=O)n(-c2c(Cl)cc(Cl)cc2OC(=O)c2ccc(F)cc2F)c1=O [16-4]
Post-emerge Herbicidal Activity ABUTH (phytotoxicity rating) ([1]; 63 g ai/ha): 0 | Post-emerge Herbicidal Activity ABUTH (phytotoxicity rating) ([1]; 250 g ai/ha): 0 | Post-emerge Herbicidal Activity CHEAL (phytotoxicity rating) ([2]; 63 g ai/ha): 0 | Post-emerge Herbicidal Activity CHEAL (phytotoxicity rating) ([2]; 250 g ai/ha): 0 | Post-emerge Herbicidal Activity DIGSA (phytotoxicity rating) ([3]; 63 g ai/ha): 0 | Post-emerge Herbicidal Activity DIGSA (phytotoxicity rating) ([3]; 250 g ai/ha): 0 | Post-emerge Herbicidal Activity SETVI (phytotoxicity rating) ([4]; 63 g ai/ha): 0 | Post-emerge Herbicidal Activity SETVI (phytotoxicity rating) ([4]; 250 g ai/ha): 0 | Post-emerge Herbicidal Activity SORHA (phytotoxicity rating) ([5]; 63 g ai/ha): 0 | Post-emerge Herbicidal Activity SORHA (phytotoxicity rating) ([5]; 250 g ai/ha): 0 | Post-emerge Herbicidal Activity AMARE (phytotoxicity rating) ([6]; 63 g ai/ha, rating scale 0-100 (0 no damage, 100 complete death)): 0 | Post-emerge Herbicidal Activity AMARE (phytotoxicity rating) ([6]; 250 g ai/ha, rating scale 0-100): 0 | Post-emerge Herbicidal Activity ECHCG (phytotoxicity rating) ([7]; 63 g ai/ha): 0 | Post-emerge Herbicidal Activity ECHCG (phytotoxicity rating) ([7]; 250 g ai/ha): 0 | Post-emerge Herbicidal Activity IPOHE (phytotoxicity rating) ([8]; 63 g ai/ha): 0 | Post-emerge Herbicidal Activity IPOHE (phytotoxicity rating) ([8]; 250 g ai/ha): 0 | Post-emerge Herbicidal Activity CASOB (phytotoxicity rating) ([9]; 63 g ai/ha): 0 | Post-emerge Herbicidal Activity CASOB (phytotoxicity rating) ([9]; 250 g ai/ha): 0 | Post-emerge Herbicidal Activity CORN (crop damage rating) ([10]; 63 g ai/ha): 0 | Post-emerge Herbicidal Activity CORN (crop damage rating) ([10]; 250 g ai/ha): 0 | Post-emerge Herbicidal Activity RICE (crop damage rating) ([11]; 63 g ai/ha): 0 | Post-emerge Herbicidal Activity RICE (crop damage rating) ([11]; 250 g ai/ha): 0
